# Molecular target: KRasG12C (M1-K169, biotinylated on the N-terminus) (Homo sapiens (Human), UniProt P01116, G12C)
# Assay: Covalent competition assay: scintillation proximity assay (SPA) quantifying covalent modification of KRASG12C
# Type: binding
# Details: competition with radiolabeled covalent probe (Compound B/Compound A), 2 hours incubation, 10 nM KRasG12C
# How it was run: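 Scintillation proximity readout after streptavidin bead capture (30 min) of biotinylated KRasG12C(M1-K169):GDP, 10 nM final, which was covalently labelled over 2 h by 25 nM radio-probe plus 475 nM cold probe unless blocked by compound.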
row,Compound,IC50 [nM]
1,"C=CC(=O)N1CC2(CC(n3nc(N4CCC(CN5C[C@@H]6C[C@H]5CO6)CC4(C)C)c(-c4c(Cl)c(Cl)cc5[nH]ncc45)c3C)C2)C1 (single isomer, unassigned) [Example 217a]",928
2,"C=CC(=O)N1CC2(CC(n3nc(N4CCC(CN5C[C@@H]6C[C@H]5CO6)CC4(C)C)c(-c4c(Cl)c(Cl)cc5[nH]ncc45)c3C)C2)C1 (single isomer, unassigned) [Example 217b]",8
3,"C=CC(=O)N1CC2(CC(n3nc(N4CCC(CN5CCOCC5)C4(C)C)c(-c4c(Cl)c(Cl)cc5[nH]ncc45)c3C)C2)C1 (single isomer, unassigned) [Example 218a, 1-(6-(4-(5,6-dichloro-1H-indazol-4-yl)-3-(2,2-dimethyl-3-(morpholinomethyl)pyrrolidin-1-yl)-5-methyl-1H-pyrazol-1-yl)-2-azaspiro[3.3]heptan-2-yl)prop-2-en-1-one]",81
4,"C=CC(=O)N1CC2(CC(n3nc(N4CCC(CN5CCOCC5)C4(C)C)c(-c4c(Cl)c(Cl)cc5[nH]ncc45)c3C)C2)C1 (single isomer, unassigned) [Example 218b, 1-(6-(4-(5,6-dichloro-1H-indazol-4-yl)-3-(2,2-dimethyl-3-(morpholinomethyl)pyrrolidin-1-yl)-5-methyl-1H-pyrazol-1-yl)-2-azaspiro[3.3]heptan-2-yl)prop-2-en-1-one]",> 5000
5,"C=CC(=O)N1CC2(CC(n3nc(N4CCC(CN5CCOCC5)C4(C)C)c(-c4c(Cl)c(Cl)cc5[nH]ncc45)c3C)C2)C1 (single isomer, unassigned) [Example 219a, 1-(6-(4-(5,6-dichloro-1H-indazol-4-yl)-3-(2,2-dimethyl-3-(morpholinomethyl)pyrrolidin-1-yl)-5-methyl-1H-pyrazol-1-yl)-2-azaspiro[3.3]heptan-2-yl)prop-2-en-1-one]",1600
6,"C=CC(=O)N1CC2(CC(n3nc(N4CCC(CN5CCOCC5)C4(C)C)c(-c4c(Cl)c(Cl)cc5[nH]ncc45)c3C)C2)C1 (single isomer, unassigned) [Example 219b, 1-(6-(4-(5,6-dichloro-1H-indazol-4-yl)-3-(2,2-dimethyl-3-(morpholinomethyl)pyrrolidin-1-yl)-5-methyl-1H-pyrazol-1-yl)-2-azaspiro[3.3]heptan-2-yl)prop-2-en-1-one]",42
7,"C=CC(=O)N1CC2(CC(n3nc(N4CC=C(CN5CCOCC5)CC4(C)C)c(-c4c(Cl)c(Cl)cc5[nH]ncc45)c3C)C2)C1 (single isomer, unassigned) [Example 220a, 1-(6-(4-(5,6-dichloro-1H-indazol-4-yl)-3-(2,2-dimethyl-4-(morpholinomethyl)-3,6-dihydropyridin-1(2H)-yl)-5-methyl-1H-pyrazol-1-yl)-2-azaspiro[3.3]heptan-2-yl)prop-2-en-1-one]",> 5000
8,"C=CC(=O)N1CC2(CC(n3nc(N4CC=C(CN5CCOCC5)CC4(C)C)c(-c4c(Cl)c(Cl)cc5[nH]ncc45)c3C)C2)C1 (single isomer, unassigned) [Example 220b, 1-(6-(4-(5,6-dichloro-1H-indazol-4-yl)-3-(2,2-dimethyl-4-(morpholinomethyl)-3,6-dihydropyridin-1(2H)-yl)-5-methyl-1H-pyrazol-1-yl)-2-azaspiro[3.3]heptan-2-yl)prop-2-en-1-one]",36
9,"C=CC(=O)N1CC2(CC(n3nc(N4CCC(CN5CCOCC5)CC4(C)COC)c(-c4c(Cl)c(Cl)cc5[nH]ncc45)c3C)C2)C1 (single isomer, unassigned) [Example 221a, 1-(6-(4-(5,6-dichloro-1H-indazol-4-yl)-3-(2-(methoxymethyl)-2-methyl-4-(morpholinomethyl)piperidin-1-yl)-5-methyl-1H-pyrazol-1-yl)-2-azaspiro[3.3]heptan-2-yl)prop-2-en-1-one]",5
10,"C=CC(=O)N1CC2(CC(n3nc(N4CCC(CN5CCOCC5)CC4(C)COC)c(-c4c(Cl)c(Cl)cc5[nH]ncc45)c3C)C2)C1 (single isomer, unassigned) [Example 221b, 1-(6-(4-(5,6-dichloro-1H-indazol-4-yl)-3-(2-(methoxymethyl)-2-methyl-4-(morpholinomethyl)piperidin-1-yl)-5-methyl-1H-pyrazol-1-yl)-2-azaspiro[3.3]heptan-2-yl)prop-2-en-1-one]",405
11,"C=CC(=O)N1CC2(CC(n3nc(N4CCC(CN5CCOCC5)CC4(C)CC)c(-c4c(Cl)c(C)cc5[nH]ncc45)c3C)C2)C1 (single isomer, unassigned) [Example 222a, 1-(6-(4-(5-chloro-6-methyl-1H-indazol-4-yl)-3-(2-ethyl-2-methyl-4-(morpholinomethyl)piperidin-1-yl)-5-methyl-1H-pyrazol-1-yl)-2-azaspiro[3.3]heptan-2-yl)prop-2-en-1-one]",1100
12,"C=CC(=O)N1CC2(CC(n3nc(N4CCC(CN5CCOCC5)CC4(C)CC)c(-c4c(Cl)c(C)cc5[nH]ncc45)c3C)C2)C1 (single isomer, unassigned) [Example 222b, 1-(6-(4-(5-chloro-6-methyl-1H-indazol-4-yl)-3-(2-ethyl-2-methyl-4-(morpholinomethyl)piperidin-1-yl)-5-methyl-1H-pyrazol-1-yl)-2-azaspiro[3.3]heptan-2-yl)prop-2-en-1-one]",7
13,"[2H]C([2H])([2H])c1c(-c2c(Cl)c(Cl)cc3[nH]ncc23)c(N2CC[C@@H](CN3CCOCC3)CC2(C)C)nn1C1CC2(C1)CN(C(=O)C=C)C2 (single isomer, unassigned) [Example 224a]",> 5000
14,"[2H]C([2H])([2H])c1c(-c2c(Cl)c(Cl)cc3[nH]ncc23)c(N2CC[C@@H](CN3CCOCC3)CC2(C)C)nn1C1CC2(C1)CN(C(=O)C=C)C2 (single isomer, unassigned) [Example 224b]",12
15,"C=CC(=O)N1CC2(CC(n3nc(N4CC[C@@H](CN5CCOCC5)CC4(C)C)c(-c4c(Cl)c(C)cc5[nH]nc(C)c45)c3C#N)C2)C1 (single isomer, unassigned) [Example 225a]",341
16,"C=CC(=O)N1CC2(CC(n3nc(N4CC[C@@H](CN5CCOCC5)CC4(C)C)c(-c4c(Cl)c(C)cc5[nH]nc(C)c45)c3C#N)C2)C1 (single isomer, unassigned) [Example 225b]",> 5000
17,"C=CC(=O)N1CC2(CC(n3nc(N4CCC(CN5CC6COCC6C5)CC4(C)C)c(-c4c(Cl)c(Cl)cc5[nH]ncc45)c3C)C2)C1 (single isomer, unassigned) [Example 226a, 1-(6-(4-(5,6-dichloro-1H-indazol-4-yl)-3-(2,2-dimethyl-4-((tetrahydro-1H-furo[3,4-c]pyrrol-5(3H)-yl)methyl)piperidin-1-yl)-5-methyl-1H-pyrazol-1-yl)-2-azaspiro[3.3]heptan-2-yl)prop-2-en-1-one]",119
18,"C=CC(=O)N1CC2(CC(n3nc(N4CCC(CN5CC6COCC6C5)CC4(C)C)c(-c4c(Cl)c(Cl)cc5[nH]ncc45)c3C)C2)C1 (single isomer, unassigned) [Example 226b, 1-(6-(4-(5,6-dichloro-1H-indazol-4-yl)-3-(2,2-dimethyl-4-((tetrahydro-1H-furo[3,4-c]pyrrol-5(3H)-yl)methyl)piperidin-1-yl)-5-methyl-1H-pyrazol-1-yl)-2-azaspiro[3.3]heptan-2-yl)prop-2-en-1-one]",1100
19,"C=CC(=O)N1CC2(CC(n3nc(N4CCC(CN5CC6COCC6C5)CC4(C)C)c(-c4c(Cl)c(Cl)cc5[nH]ncc45)c3C)C2)C1 (single isomer, unassigned) [Example 227a, 1-(6-(4-(5,6-dichloro-1H-indazol-4-yl)-3-(2,2-dimethyl-4-((tetrahydro-1H-furo[3,4-c]pyrrol-5(3H)-yl)methyl)piperidin-1-yl)-5-methyl-1H-pyrazol-1-yl)-2-azaspiro[3.3]heptan-2-yl)prop-2-en-1-one]",4900
20,"C=CC(=O)N1CC2(CC(n3nc(N4CCC(CN5CC6COCC6C5)CC4(C)C)c(-c4c(Cl)c(Cl)cc5[nH]ncc45)c3C)C2)C1 (single isomer, unassigned) [Example 227b, 1-(6-(4-(5,6-dichloro-1H-indazol-4-yl)-3-(2,2-dimethyl-4-((tetrahydro-1H-furo[3,4-c]pyrrol-5(3H)-yl)methyl)piperidin-1-yl)-5-methyl-1H-pyrazol-1-yl)-2-azaspiro[3.3]heptan-2-yl)prop-2-en-1-one]",8
21,"C=CC(=O)N1CC2(CC(n3nc(N4CCC(CN5CC6CC(C5)O6)CC4(C)C)c(-c4c(Cl)c(Cl)cc5[nH]ncc45)c3C)C2)C1 (single isomer, unassigned) [Example 228a, 1-(6-(3-(4-((6-oxa-3-azabicyclo[3.1.1]heptan-3-yl)methyl)-2,2-dimethylpiperidin-1-yl)-4-(5,6-dichloro-1H-indazol-4-yl)-5-methyl-1H-pyrazol-1-yl)-2-azaspiro[3.3]heptan-2-yl)prop-2-en-1-one]",> 5000
22,"C=CC(=O)N1CC2(CC(n3nc(N4CCC(CN5CC6CC(C5)O6)CC4(C)C)c(-c4c(Cl)c(Cl)cc5[nH]ncc45)c3C)C2)C1 (single isomer, unassigned) [Example 228b, 1-(6-(3-(4-((6-oxa-3-azabicyclo[3.1.1]heptan-3-yl)methyl)-2,2-dimethylpiperidin-1-yl)-4-(5,6-dichloro-1H-indazol-4-yl)-5-methyl-1H-pyrazol-1-yl)-2-azaspiro[3.3]heptan-2-yl)prop-2-en-1-one]",281
23,"C=CC(=O)N1CC2(CC(n3nc(N4CCC(CN5CC6CC(C5)O6)CC4(C)C)c(-c4c(Cl)c(Cl)cc5[nH]ncc45)c3C)C2)C1 (single isomer, unassigned) [Example 229a, 1-(6-(3-(4-((6-oxa-3-azabicyclo[3.1.1]heptan-3-yl)methyl)-2,2-dimethylpiperidin-1-yl)-4-(5,6-dichloro-1H-indazol-4-yl)-5-methyl-1H-pyrazol-1-yl)-2-azaspiro[3.3]heptan-2-yl)prop-2-en-1-one]",> 5000
